Results from patent publication US10688111B2, “Liquid formulations of compounds active at sulfonylurea receptors” (Biogen Chesapeake LLC, priority 2008, dated 2020).

How the values were obtained:
Assay type in all cases: physicochemical
[1] = Glibenclamide solubility in infusion fluids by HPLC, excess drug shaken 24 hours (Table 4); conditions: saline or isotonic, thermodynamic from solid, pH 9.0 (50-fold dilution), 24 hours ambient
Procedure: The solubility of glibenclamide was determined by high pressure liquid chromatography (HPLC) in a variety of infusion fluids. Excess glibenclamide was shaken with the vehicle for 24 hours at ambient temperature and the glibenclamide content of the supernatant determined by HPLC.
The following infusion vehicles were assessed in these experiments:
1.) 0.9% NaCl at the lowest end of the pH specification (pH 4.5) containing a 50-fold dilution of the PEG/ethanol/meglumine 10 mM pH 9.0 formulation.
2.) 0.9% NaCl at the lowest end of the pH specification (pH 4.5) containing a 50-fold dilution of the PEG/ethanol/diethanolamine 10 mM pH 9.0 formulation.
3.) 0.9% NaCl at the lowest end of the pH specification (pH 4.5) containing a 50-fold dilution of the PEG/ethanol/TRIS 10 mM pH 9.0 formulation.
4.) 0.9% NaCl at the lowest end of the pH specification (pH 4.5).
5.) 0.9% NaCl at the highest end of the pH specification (pH 7.0).
6.) 0.9% NaCl ‘as is’ (pH 5.8).
7.) 0.9% NaCl at the lowest end of the pH specification (pH 4.5) containing a 50-fold dilution of the PEG/ethanol formulation (without buffer or pH adjustment).
8.) 0.9% NaCl at the highest end of the pH specification (pH 7.0) containing a 50-fold dilution of the PEG/ethanol formulation (without buffer or pH adjustment).

[2] = pH after 50-fold dilution of glibenclamide 1 mg/ml concentrate into Hartmann's or NaCl; conditions: 1 mg/ml in PEG/Ethanol/Buffer (4/1/5)
Procedure: This was found even for experiments in which the concentration of buffer was reduced to 5 mM. In order to determine the final pH of diluted solutions resulting from high pH solutions having high concentrations of SUR-active compounds, measurements of the pH of glibenclamide solutions at various levels of dilution were made. […]

[3] = Precipitation on dilution of concentrated glibenclamide solutions
Procedure: This formulation may also include a buffer, such as meglumine or diethanolamine. This formulation may also include a surfactant; for example, this solution may include Tween 80 (e.g., less than about 1 ug/ml or less than about 1 ug/mg of glibenclamide). This formulation can be stored in a refrigerator (e.g., at about 2-8° C.) or can be stored at room temperature. This formulation is suitable for dilution; for example, it may be diluted 1:1, or 1:2 for use in bolus injections. This formulation may also be diluted by larger amounts of diluent, to 1:50 for example, for administration of glibenclamide as an infusion over an extended period of time. Dilution with a buffered solution allows the reduction of the solution pH to physiological levels without causing precipitation of glibenclamide. […] Experiments investigating the effect of dilution of relatively high concentrations of SUR-active compounds were performed. […] These solutions were diluted as follows with each of these diluents (0.9% NaCl and 5% glucose solutions): 1 in 2; 1 in 4; 1 in 5; 1 in 10; 1 in 20; and 1 in 50.

## COc1ccc(Cl)cc1C(=O)NCCc1ccc(S(=O)(=O)NC(=O)NC2CCCCC2)cc1 [Glibenclamide, N-p-(2-[5-Chloro-2-methoxybenzamido]ethyl) benzenesulfonyl-N′-cyclohexylurea]
[1]; NaCl at pH 4.5 + PEG/EtOH/Meglumine 10 mM, actual pH 7.92
  solubility at 24 h: 150 µg/mL
[1]; NaCl at pH 4.5 + PEG/EtOH/TRIS 10 mM, actual pH 7.89
  solubility at 24 h: 150 µg/mL
[2]; Diethanolamine 5 mM pH 8, into Hartmann's pH 6.48 (Expt1)
  pH after a 50-fold Dilution: 6.71
[2]; Diethanolamine 5 mM pH 8, into Hartmann's pH 6.60
  pH after a 50-fold Dilution: 7.99
[2]; Diethanolamine 5 mM pH 8, into NaCl pH 4.59
  pH after a 50-fold Dilution: 7.27
[2]; Diethanolamine 5 mM pH 8, into NaCl pH 6.82
  pH after a 50-fold Dilution: 8.32
[2]; Diethanolamine 5 mM pH 8.5, into Hartmann's pH 6.48, Expt 2
  pH after a 50-fold Dilution: 6.82
[2]; Diethanolamine 5 mM pH 9, into Hartmann's pH 6.48 (Expt1)
  pH after a 50-fold Dilution: 7.54
[2]; Diethanolamine 5 mM pH 9, into Hartmann's pH 6.48, Expt 2
  pH after a 50-fold Dilution: 7.29
[2]; Diethanolamine 5 mM pH 9, into NaCl pH 6.82
  pH after a 50-fold Dilution: 8.65
[2]; Diethanolamine 5 mM pH 9.5, into Hartmann's pH 6.48 (Expt1)
  pH after a 50-fold Dilution: 6.73
[2]; Diethanolamine 5 mM pH 9.5, into Hartmann's pH 6.48, Expt 2
  pH after a 50-fold Dilution: 8.37
[2]; Diethanolamine 5 mM pH 9.5, into Hartmann's pH 6.60
  pH after a 50-fold Dilution: 8.85
[2]; Diethanolamine 5 mM pH 9.5, into NaCl pH 4.59
  pH after a 50-fold Dilution: 8.72
[2]; Diethanolamine 5 mM pH 9.5, into NaCl pH 6.82
  pH after a 50-fold Dilution: 8.88
[2]; Diethanolamine 5 mM pH 10, into Hartmann's pH 6.48
  pH after a 50-fold Dilution: 8.46
[2]; Diethanolamine 10 mM pH 9, into Hartmann's pH 6.48
  pH after a 50-fold Dilution: 8.38
[2]; Diethanolamine 10 mM pH 9, into NaCl pH 4.59
  pH after a 50-fold Dilution: 8.46
[2]; Diethanolamine 10 mM pH 10, into Hartmann's pH 6.48
  pH after a 50-fold Dilution: 8.88
[2]; Diethanolamine 10 mM pH 10, into NaCl pH 6.82
  pH after a 50-fold Dilution: 9.31
[2]; Meglumine 5 mM pH 8, into Hartmann's pH 6.48 (Expt1)
  pH after a 50-fold Dilution: 6.66
[2]; Meglumine 5 mM pH 8, into Hartmann's pH 6.60
  pH after a 50-fold Dilution: 6.55
[2]; Meglumine 5 mM pH 8, into NaCl pH 4.59
  pH after a 50-fold Dilution: 6.56
[2]; Meglumine 5 mM pH 8, into NaCl pH 6.82
  pH after a 50-fold Dilution: 8.21
[2]; Meglumine 5 mM pH 8.5, into Hartmann's pH 6.48, Expt 2
  pH after a 50-fold Dilution: 6.64
[2]; Meglumine 5 mM pH 9, into Hartmann's pH 6.48 (Expt1)
  pH after a 50-fold Dilution: 6.8
[2]; Meglumine 5 mM pH 9, into Hartmann's pH 6.48, Expt 2
  pH after a 50-fold Dilution: 6.96
[2]; Meglumine 5 mM pH 9, into NaCl pH 6.82
  pH after a 50-fold Dilution: 8.40
[2]; Meglumine 5 mM pH 9.5, into Hartmann's pH 6.48 (Expt1)
  pH after a 50-fold Dilution: 6.93
[2]; Meglumine 5 mM pH 9.5, into Hartmann's pH 6.48, Expt 2
  pH after a 50-fold Dilution: 7.68
[2]; Meglumine 5 mM pH 9.5, into Hartmann's pH 6.60
  pH after a 50-fold Dilution: 8.49
[2]; Meglumine 5 mM pH 9.5, into NaCl pH 4.59
  pH after a 50-fold Dilution: 8.04
[2]; Meglumine 5 mM pH 9.5, into NaCl pH 6.82
  pH after a 50-fold Dilution: 8.71
[2]; Meglumine 5 mM pH 10, into Hartmann's pH 6.48
  pH after a 50-fold Dilution: 8.32
[2]; Meglumine 10 mM pH 9, into Hartmann's pH 6.48
  pH after a 50-fold Dilution: 7.37
[2]; Meglumine 10 mM pH 9, into NaCl pH 4.59
  pH after a 50-fold Dilution: 6.35
[2]; Meglumine 10 mM pH 10, into Hartmann's pH 6.48
  pH after a 50-fold Dilution: 8.98
[2]; Meglumine 10 mM pH 10, into NaCl pH 6.82
  pH after a 50-fold Dilution: 9.54
[3]; 2 mg/ml in 100 mM meglumine buffer with 0.9% NaCl or 5% glucose, diluted 1 in 2, 4, 5, 10, 20 and 50 with these diluents
  precipitation on dilution: no precipitation
[3]; Example 1 formulation (40% PEG 300, 10% Ethanol, 50% water, about pH 9, 1 mg/ml) diluted 1:50 with Hartman's solution
  behaviour of drug during and following dilution: remained in solution
